Laboratory results published in patent US6737383B1, “Herbicidal oxadiazolidines” (priority 1999, dated 2004).

Assays:
[1] = tested on: Green foxtail; assay: Test D green foxtail; type: in vivo; settings: Preemergence, 0 to 100 scale
Procedure, shortened: (§1)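 Visual injury ratings, 0 = no injury to 100 = complete control, taken 14 to 21 days after treatment. Test chemicals were in a surfactant-containing non-phytotoxic solvent; preemergence treatments went onto the sandy loam surface of seeded greenhouse pots within one day of sowing.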

[2] = tested on: dallisgrass; assay: Test D dallisgrass; type: in vivo, Paspalum dilatatum; settings: Preemergence, 0 to 100 scale
Procedure, shortened: as §1

[3] = tested on: wild oat; assay: Test E wild oat; type: in vivo, Avena fatua; settings: Preemergence
[4] = tested on: winter barley; assay: Test E winter barley; type: in vivo, Hordeum vulgare; settings: Preemergence
[5] = tested on: Italian ryegrass; assay: Test E Italian ryegrass; type: in vivo, Lolium multiflorum; settings: Preemergence
[6] = tested on: common ragweed; assay: Test D common ragweed; type: in vivo, Ambrosia elatior; settings: Preemergence, 0 to 100 scale
Procedure, shortened: as §1

[7] = tested on: surinam grass; assay: Test D surinam grass; type: in vivo, Brachiaria decumbens; settings: Preemergence, 0 to 100 scale
Procedure, shortened: as §1

[8] = tested on: winter wheat; assay: Test E winter wheat; type: in vivo, Triticum aestivum; settings: Postemergence; for Plant response rating, Wheat (winter): 0 to 100 scale
Procedure, shortened: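 Postemergence: spray at 1–4 leaf stage, soil 60:40 sandy loam:potting mix; solvent + surfactant formulation; greenhouse 21–28 d; visual injury vs untreated controls.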

[9] = tested on: green foxtail; assay: Test E green foxtail; type: in vivo, Setaria viridis; settings: Preemergence
[10] = tested on: blackgrass; assay: Test B pre/postemergence blackgrass; type: in vivo, Alopecurus myosuroides
Procedure, shortened: (§2)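 Response is a visual 0-to-10 score relative to untreated plants, where 0 means no effect and 10 means complete control, taken twelve to sixteen days after application. Treatments went onto soil at planting and onto foliage of 1- to 4-leaf plants, using a surfactant-containing non-phytotoxic solvent.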

[11] = tested on: surinam grass; assay: Test B pre/postemergence surinam grass; type: in vivo, Brachiaria decumbens
Procedure, shortened: as §2

[12] = tested on: goosegrass; assay: Test D goosegrass; type: in vivo, Eleusine indica; settings: Preemergence, 0 to 100 scale
Procedure, shortened: as §1

[13] = tested on: winter wheat; assay: Test E winter wheat; type: in vivo, Triticum aestivum; settings: Preemergence
[14] = tested on: blackgrass; assay: Test E blackgrass; type: in vivo, Alopecurus myosuroides; settings: Preemergence
[15] = tested on: bedstraw; assay: Test B pre/postemergence bedstraw; type: in vivo, Galium aparine
Procedure, shortened: as §2

[16] = tested on: large crabgrass; assay: Test D large crabgrass; type: in vivo, Digitaria sanguinalis; settings: Preemergence, 0 to 100 scale
Procedure, shortened: as §1

[17] = tested on: bamyardgrass; assay: Test B flood test barnyardgrass; type: in vivo, Echinochloa crus-galli
Procedure, shortened: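 Each value is a visual injury score relative to controls, with 10 meaning complete control and 0 no effect. Evaluation took place twelve to sixteen days after the 2-leaf-stage plants were treated and kept in the greenhouse.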

[18] = Rate 64 g/ha, 0 no injury, 100 complete control
[19] = Rate 125 g/ha, 0 to 100 scale (0 no effect, 100 complete control)
[20] = Rate 500 g/ha, 0 to 100 scale where 0 is no effect and 100 is complete control
[21] = Postemergence, Rate 125 g/ha, scale of 0 to 10 where 0 is no effect and 10 is complete control
[22] = Preemergence, Rate 62 g/ha, scale 0 to 10 (0 no effect, 10 complete control)
[23] = Preemergence, Rate 125 g/ha, 0 is no effect, 10 is complete control
[24] = Preemergence, Rate 250 g/ha, scale 0 to 10, 0 is no effect, 10 is complete control
[25] = Preemergence, Rate 500 g/ha, scale 0 to 10 (0 no effect, 10 complete control)
[26] = Rate 62 g/ha, Postemergence, scale of 0 to 10 where 0 is no effect and 10 is complete control
[27] = Rate 250 g/ha, Postemergence, scale 0 to 10, 0 is no effect, 10 is complete control
[28] = Postemergence, Rate 62 g/ha, scale 0 to 10, 0 is no effect, 10 is complete control
[29] = Postemergence, Rate 250 g/ha, scale 0 to 10, 0 no effect, 10 complete control
[30] = Preemergence, Rate 62 g/ha, scale 0 to 10, 0 is no effect, 10 is complete control
[31] = Preemergence, Rate 125 g/ha, scale 0 to 10 (0 no effect, 10 complete control)
[32] = Preemergence, Rate 250 g/ha, scale of 0 to 10 where 0 is no effect and 10 is complete control
[33] = Preemergence, Rate 500 g/ha, scale 0 (no effect) to 10 (complete control)
[34] = Rate 125 g/ha, Postemergence, scale 0 to 10, 0 no effect, 10 complete control
[35] = Rate 500 g/ha, Postemergence, 0 to 10 scale (0 no effect, 10 complete control)

Structure (SMILES): Cc1ccc(N(C(=O)n2oc(=O)n(C(C)C)c2=O)C(C)C)cc1 [Compound 132]
- Green foxtail plant response rating [1, 18]: 100
- Plant response rating, Green foxtail [1, 18]: 100
- Plant response rating, Dallisgrass [2, 18]: 98
- Plant response rating, Wild oat [3, 19]: 35
- Wild oat plant response rating (0 to 100 scale) ([3]; Rate 250 g/ha): 50
- Plant response rating, Wild oat [3, 20]: 65
- Plant response rating, Barley (winter) [4, 19]: 10
- Barley (winter) plant response rating (0 to 100 scale) ([4]; Rate 250 g/ha): 50
- Plant response rating, Barley (winter) [4, 20]: 60
- Plant response rating, I. Ryegrass [5, 19]: 20
- I. Ryegrass plant response rating (0 to 100 scale) ([5]; Rate 250 g/ha): 100
- Plant response rating, I. Ryegrass [5, 20]: 100
- Plant response rating, C. ragweed [6, 18]: 0
- Surinam grass plant response rating [7, 18]: 30
- Plant response rating, Wheat (winter) ([8]; Rate 125 g/ha): 20
- Plant response rating, Wheat (winter) ([8]; Rate 500 g/ha, 0 no effect, 100 complete control): 80
- Wheat (winter) plant response rating ([8]; Rate 250 g/ha, 0 to 100 scale where 0 is no effect and 100 is complete control): 50
- Plant response rating, Green foxtail [9, 19]: 60
- Green foxtail plant response rating (0 to 100 scale) ([9]; Rate 250 g/ha): 98
- Plant response rating, Green foxtail [9, 20]: 100
- Blackgrass plant response rating [10, 21]: 2
- Blackgrass plant response rating [10, 22]: 3
- Blackgrass plant response rating (0 to 10 scale) [10, 23]: 6
- Blackgrass plant response rating [10, 24]: 9
- Blackgrass plant response rating [10, 25]: 10
- Blackgrass plant response rating [10, 26]: 0
- Plant response rating, Blackgrass [10, 27]: 8
- Blackgrass plant response rating ([10]; Rate 500 g/ha, Postemergence, scale 0 to 10): 9
- B. signalgrass plant response rating [11, 21]: 3
- B. signalgrass plant response rating [11, 22]: 0
- B. signalgrass plant response rating (0 to 10 scale) [11, 23]: 3
- B. signalgrass plant response rating [11, 24]: 7
- B. signalgrass plant response rating [11, 25]: 9
- B. signalgrass plant response rating [11, 26]: 0
- Plant response rating, B. signalgrass [11, 27]: 4
- B. signalgrass plant response rating ([11]; Rate 500 g/ha, Postemergence, scale of 0 to 10 where 0 is no effect and 10 is complete control): 7
- Plant response rating, Goosegrass [12, 18]: 98
- Plant response rating, Wheat (winter) [13, 19]: 30
- Wheat (winter) plant response rating (0 to 100 scale) ([13]; Rate 250 g/ha): 40
- Plant response rating, Wheat (winter) [13, 20]: 60
- Plant response rating, Blackgrass [14, 19]: 20
- Blackgrass plant response rating (0 to 100 scale) ([14]; Rate 250 g/ha): 60
- Plant response rating, Blackgrass [14, 20]: 75
- Bedstraw plant response rating [15, 21]: 0
- Bedstraw plant response rating [15, 22]: 0
- Bedstraw plant response rating (0 to 10 scale) [15, 23]: 0
- Bedstraw plant response rating [15, 24]: 9
- Bedstraw plant response rating [15, 25]: 10
- Bedstraw plant response rating [15, 26]: 0
- Plant response rating, Bedstraw [15, 27]: 2
- Bedstraw plant response rating ([15]; Rate 500 g/ha, Postemergence, scale 0 to 10, 0 no effect, 10 complete control): 7
- Plant response rating Large crabgrass [16, 18]: 100

Structure (SMILES): Cc1ccccc1-n1c(=O)on(C(=O)N(c2ccccc2)C(C)C)c1=O [Compound 36]
- Plant response rating, Green foxtail ([1]; Rate 500 g/ha): 100
- Plant response rating, Dallisgrass ([2]; Rate 500 g/ha): 100
- Plant response rating, C. ragweed ([6]; Rate 500 g/ha): 10
- Plant response rating Surinam grass ([7]; Rate 500 g/ha): 85
- Blackgrass plant response rating [10, 28]: 0
- Blackgrass plant response rating [10, 29]: 4
- Plant response rating, Blackgrass [10, 30]: 4
- Plant response rating, Blackgrass [10, 31]: 5
- Plant response rating, Blackgrass [10, 32]: 6
- Blackgrass plant response rating [10, 33]: 7
- Blackgrass plant response rating [10, 34]: 3
- Blackgrass plant response rating [10, 35]: 6
- Barnyardgrass plant response rating [17, 28]: 0
- Barnyardgrass plant response rating ([17]; Rate 125 g/ha, Postemergence section (flood test species), scale 0 to 10, 0 no effect, 10 complete control): 0
- Barnyardgrass plant response rating ([17]; Rate 250 g/ha, headed Pre-emergence (flood test species), scale 0 to 10 (0 no effect, 10 complete control)): 0
- Barnyardgrass plant response rating ([17]; Rate 500 g/ha, Postemergence section of Table B, 0 to 10 scale (0 no effect, 10 complete control)): 5
- Plant response rating, Barnyardgrass ([17]; Rate 500 g/ha, headed Pre-emergence (flood test species), scale 0 to 10 (0 no effect, 10 complete control)): 0
- Barnyardgrass plant response rating ([17]; Rate 1000 g/ha, Pre-emergence (as headed), scale 0 to 10): 0
- Barnyardgrass plant response rating ([17]; Rate 2000 g/ha, Pre-emergence (as headed), scale 0 to 10, 0 no effect, 10 complete control): 0
- Barnyardgrass plant response rating ([17]; flood test, listed under Postemergence, Rate 250 g/ha, scale 0 to 10, 0 no effect, 10 complete control): 2
- B. signalgrass plant response rating [11, 28]: 0
- B. signalgrass plant response rating [11, 29]: 0
- Plant response rating, B. signalgrass [11, 30]: 5
- Plant response rating, B. signalgrass [11, 31]: 8
- Plant response rating, B. signalgrass [11, 32]: 8
- B. signalgrass plant response rating [11, 33]: 8
- B. signalgrass plant response rating [11, 34]: 0
- B. signalgrass plant response rating [11, 35]: 4
- Plant response rating, Goosegrass ([12]; Rate 500 g/ha): 100
- Bedstraw plant response rating [15, 28]: 0
- Plant response rating, Bedstraw [15, 30]: 0
- Plant response rating, Bedstraw [15, 31]: 0
- Bedstraw plant response rating [15, 33]: 0
- Plant response rating Large crabgrass ([16]; Rate 500 g/ha): 100
